Measured values published in ChEMBL document CHEMBL1132339, “Lipophilic 4-isoxazolyl-1,4-dihydropyridines: synthesis and structure-activity relationships” (J Med Chem, 1999).

target: Voltage-dependent L-type calcium channel subunit alpha-1C (Rattus norvegicus, UniProt P22002); assay: Displacement of [3H](+)-PN200-110 binding from calcium channels of rat cardiac membranes.; assay type: cell membranes, Membrane
Sequence (P22002 whole entry): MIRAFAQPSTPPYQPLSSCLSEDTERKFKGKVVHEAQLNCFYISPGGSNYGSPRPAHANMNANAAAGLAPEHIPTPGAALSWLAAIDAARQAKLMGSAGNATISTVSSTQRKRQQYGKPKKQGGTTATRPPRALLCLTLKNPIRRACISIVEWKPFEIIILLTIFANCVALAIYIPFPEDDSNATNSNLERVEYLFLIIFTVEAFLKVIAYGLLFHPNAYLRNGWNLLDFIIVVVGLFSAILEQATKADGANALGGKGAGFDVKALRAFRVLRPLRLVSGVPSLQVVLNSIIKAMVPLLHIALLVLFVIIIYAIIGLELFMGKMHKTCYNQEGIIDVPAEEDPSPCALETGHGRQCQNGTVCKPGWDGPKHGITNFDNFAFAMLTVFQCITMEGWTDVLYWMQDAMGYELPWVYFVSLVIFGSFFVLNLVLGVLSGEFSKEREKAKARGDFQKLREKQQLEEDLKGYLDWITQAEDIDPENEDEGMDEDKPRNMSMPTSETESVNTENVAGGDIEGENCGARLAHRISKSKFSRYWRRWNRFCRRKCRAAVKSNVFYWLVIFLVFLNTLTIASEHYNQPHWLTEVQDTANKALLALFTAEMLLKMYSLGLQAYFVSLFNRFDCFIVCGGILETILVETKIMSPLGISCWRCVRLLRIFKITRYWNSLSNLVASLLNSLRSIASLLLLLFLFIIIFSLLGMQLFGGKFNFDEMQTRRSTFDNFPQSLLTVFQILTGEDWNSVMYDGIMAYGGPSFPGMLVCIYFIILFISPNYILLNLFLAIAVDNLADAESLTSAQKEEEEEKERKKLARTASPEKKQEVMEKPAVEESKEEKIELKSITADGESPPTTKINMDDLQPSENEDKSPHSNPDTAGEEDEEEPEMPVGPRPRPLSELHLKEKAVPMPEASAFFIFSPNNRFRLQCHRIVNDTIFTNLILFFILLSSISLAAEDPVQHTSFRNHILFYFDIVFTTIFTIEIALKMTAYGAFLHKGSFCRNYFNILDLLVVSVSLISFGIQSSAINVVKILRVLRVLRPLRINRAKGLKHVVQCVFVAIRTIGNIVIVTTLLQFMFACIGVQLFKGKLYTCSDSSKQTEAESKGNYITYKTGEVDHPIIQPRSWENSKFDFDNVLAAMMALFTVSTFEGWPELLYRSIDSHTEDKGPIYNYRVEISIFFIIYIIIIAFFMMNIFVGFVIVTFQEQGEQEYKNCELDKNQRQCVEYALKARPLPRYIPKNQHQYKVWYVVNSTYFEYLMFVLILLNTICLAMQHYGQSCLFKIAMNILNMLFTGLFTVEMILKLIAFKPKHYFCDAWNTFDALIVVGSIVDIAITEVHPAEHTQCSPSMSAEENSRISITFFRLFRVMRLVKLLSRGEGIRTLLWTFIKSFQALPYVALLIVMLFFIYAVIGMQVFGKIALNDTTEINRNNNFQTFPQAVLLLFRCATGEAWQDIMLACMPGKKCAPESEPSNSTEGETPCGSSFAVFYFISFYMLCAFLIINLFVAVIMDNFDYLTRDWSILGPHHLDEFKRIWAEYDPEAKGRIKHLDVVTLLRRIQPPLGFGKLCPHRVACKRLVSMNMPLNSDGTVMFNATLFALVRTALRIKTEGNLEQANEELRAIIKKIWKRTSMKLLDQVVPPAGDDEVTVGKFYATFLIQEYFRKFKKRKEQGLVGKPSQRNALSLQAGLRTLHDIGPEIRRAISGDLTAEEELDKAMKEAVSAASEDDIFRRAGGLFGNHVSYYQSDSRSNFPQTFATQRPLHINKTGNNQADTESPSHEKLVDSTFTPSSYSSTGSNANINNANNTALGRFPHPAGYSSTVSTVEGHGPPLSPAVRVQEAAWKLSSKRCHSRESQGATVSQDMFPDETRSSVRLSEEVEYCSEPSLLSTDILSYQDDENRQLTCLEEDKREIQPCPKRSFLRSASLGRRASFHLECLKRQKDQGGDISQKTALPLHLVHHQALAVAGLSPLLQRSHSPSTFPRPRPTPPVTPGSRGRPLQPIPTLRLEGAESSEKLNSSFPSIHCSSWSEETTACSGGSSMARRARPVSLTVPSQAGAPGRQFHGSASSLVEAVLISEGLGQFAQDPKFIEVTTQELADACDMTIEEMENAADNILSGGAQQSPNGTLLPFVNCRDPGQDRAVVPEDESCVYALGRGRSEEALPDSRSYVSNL

Ki [nM] | SMILES
10.7 | CCOC(=O)C1=C(C)N=C(C)/C(=C(/O)OCC)C1c1c(C)noc1CCc1ccc2ccccc2c1 (stereo not drawn)
45.5 | CCOC(=O)C1=C(C)N=C(C)/C(=C(/O)OCC)C1c1c(C)noc1CCc1ccccc1-c1ccccc1 (stereo not drawn)
2.16 | CCOC(=O)C1=C(C)N=C(C)/C(=C(/O)OCC)C1c1c(C)noc1CCc1cccc2ccccc12 (stereo not drawn)
